“And” between values parts separate entries of the source, which are not always exact repeats. Identical values can stand only once.
Assays:
[1] = test system: human intestinal microsomes (HIM)
UGT1A8 = target: T1, UGT1A8 (Homo sapiens, UniProt Q9HAW9); test: in vitro; details: UGT1A8 Supersomes, pH 7.5, probe aprepitant […] (Km), AP-G formation
T1 sequence (Q9HAW9 26-530): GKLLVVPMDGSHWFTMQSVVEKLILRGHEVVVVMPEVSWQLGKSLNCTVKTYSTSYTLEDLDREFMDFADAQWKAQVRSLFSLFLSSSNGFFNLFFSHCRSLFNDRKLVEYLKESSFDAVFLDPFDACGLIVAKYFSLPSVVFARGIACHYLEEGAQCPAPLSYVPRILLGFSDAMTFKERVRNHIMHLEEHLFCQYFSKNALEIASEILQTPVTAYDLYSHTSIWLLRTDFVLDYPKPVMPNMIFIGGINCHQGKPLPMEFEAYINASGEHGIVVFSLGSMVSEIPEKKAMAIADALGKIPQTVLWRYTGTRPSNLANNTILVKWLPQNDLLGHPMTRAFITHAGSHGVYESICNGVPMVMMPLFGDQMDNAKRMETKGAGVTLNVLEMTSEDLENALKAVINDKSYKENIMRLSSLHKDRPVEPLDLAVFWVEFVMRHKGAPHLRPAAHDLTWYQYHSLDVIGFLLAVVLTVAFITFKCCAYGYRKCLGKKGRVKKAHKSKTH

[2] = test system: human liver microsomes (HLM); test: Inhibition of aprepitant glucuronidation by UGT specific inhibitors in HLM; format: in vitro ADME; details: for inhibition of aprepitant glucuronidation: aprepitant at 5 µM and at the Kms
UGT1A4 [3] = target: T2, UGT1A4 (Homo sapiens, UniProt P22310)
T2 sequence (P22310 29-534): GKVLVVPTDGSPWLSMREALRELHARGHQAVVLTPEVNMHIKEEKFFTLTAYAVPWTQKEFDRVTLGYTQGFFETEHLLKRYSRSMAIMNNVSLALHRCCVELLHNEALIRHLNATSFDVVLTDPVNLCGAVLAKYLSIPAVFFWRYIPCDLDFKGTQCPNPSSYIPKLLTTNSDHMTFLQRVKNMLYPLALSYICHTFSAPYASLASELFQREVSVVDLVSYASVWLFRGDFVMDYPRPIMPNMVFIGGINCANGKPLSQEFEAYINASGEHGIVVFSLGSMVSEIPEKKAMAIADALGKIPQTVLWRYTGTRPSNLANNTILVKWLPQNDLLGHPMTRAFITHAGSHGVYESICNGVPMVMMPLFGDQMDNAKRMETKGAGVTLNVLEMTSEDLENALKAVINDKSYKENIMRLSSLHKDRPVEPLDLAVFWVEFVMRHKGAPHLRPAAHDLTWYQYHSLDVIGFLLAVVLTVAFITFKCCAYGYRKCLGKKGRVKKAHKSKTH

UGT1A4 [4] = target: T2, UGT1A4; test: Inhibition of aprepitant glucuronidation by UGT specific inhibitors in UGT1A4; details: UGT1A4, aprepitant 5 µM, 200 µM hecogenin
UGT1A3 [5] = target: T3, UGT1A3 (Homo sapiens, UniProt P35503); test: in vitro; details: UGT1A3 Supersomes, pH 7.5, probe aprepitant […] µM (Km), AP-G formation
T3 sequence (P35503 29-534): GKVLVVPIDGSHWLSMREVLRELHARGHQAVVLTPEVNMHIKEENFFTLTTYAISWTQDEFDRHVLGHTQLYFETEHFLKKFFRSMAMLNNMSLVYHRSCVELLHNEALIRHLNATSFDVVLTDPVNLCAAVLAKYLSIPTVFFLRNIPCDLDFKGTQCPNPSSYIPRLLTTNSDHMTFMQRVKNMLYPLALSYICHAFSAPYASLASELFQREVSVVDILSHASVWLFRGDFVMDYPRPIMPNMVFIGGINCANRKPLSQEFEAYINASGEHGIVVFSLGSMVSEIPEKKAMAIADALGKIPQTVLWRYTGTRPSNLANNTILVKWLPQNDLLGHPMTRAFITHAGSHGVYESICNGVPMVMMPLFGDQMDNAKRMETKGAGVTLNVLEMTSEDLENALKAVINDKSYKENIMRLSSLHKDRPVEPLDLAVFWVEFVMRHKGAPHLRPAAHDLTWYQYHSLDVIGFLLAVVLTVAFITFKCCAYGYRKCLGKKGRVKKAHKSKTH

UGT1A3 [6] = target: T3, UGT1A3; test: Inhibition of aprepitant glucuronidation by UGT specific inhibitors in UGT1A3; details: UGT1A3 Supersomes, pH 7.5, probe aprepitant 5 µM, AP-G formation
UGT2B7 = target: T4, UGT2B7 (Homo sapiens, UniProt P16662); details: ref Veal et al., 1995; Barbier et al., 2000; cited from earlier work
T4 sequence (P16662 24-529): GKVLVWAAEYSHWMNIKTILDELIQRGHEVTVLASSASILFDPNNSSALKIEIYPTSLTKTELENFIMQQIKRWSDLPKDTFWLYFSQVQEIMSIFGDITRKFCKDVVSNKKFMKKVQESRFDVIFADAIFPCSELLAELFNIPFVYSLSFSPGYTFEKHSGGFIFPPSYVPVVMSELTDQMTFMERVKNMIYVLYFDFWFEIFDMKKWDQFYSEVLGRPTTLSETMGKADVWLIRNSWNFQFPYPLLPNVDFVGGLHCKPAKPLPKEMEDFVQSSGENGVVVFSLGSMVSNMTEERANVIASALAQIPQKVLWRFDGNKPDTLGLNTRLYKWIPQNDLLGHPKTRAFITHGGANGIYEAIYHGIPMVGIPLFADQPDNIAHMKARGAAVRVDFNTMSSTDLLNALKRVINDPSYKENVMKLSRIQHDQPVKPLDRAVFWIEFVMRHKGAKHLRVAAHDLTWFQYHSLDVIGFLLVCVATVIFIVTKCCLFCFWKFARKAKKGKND

not read = substrate: C[C@@H](O[C@H]1OCCN(Cc2n[nH]c(=O)[nH]2)[C@H]1c1ccc(F)cc1)c1cc(C(F)(F)F)cc(C(F)(F)F)c1; test: not read; details: mean ± SE, pH 7.5, 37.0 °C
[7] = aprepitant 5 µM, 1000 µM sulfinpyrazone or 200 µM hecogenin

O=C(O)Cc1ccccc1Nc1c(Cl)cccc1Cl [diclofenac]
inhibition [1]: 100%
inhibition at 60 min, 500 µM (UGT1A8): 66.7%

hecogenin
Percent inhibition of aprepitant glucuronidation [2, 7]: 100%
Percent inhibition of aprepitant glucuronidation ([2]; aprepitant […] (Km for UGT1A4), 200 µM hecogenin): 80.8%
inhibition of aprepitant glucuronidation [2]: high inhibition
inhibition (UGT1A4 [3]): 83.9%
Percent inhibition of aprepitant glucuronidation (UGT1A4 [4]): 100%

O=C1C(CC[S+]([O-])c2ccccc2)C(=O)N(c2ccccc2)N1c1ccccc1 (stereo not shown) [sulfinpyrazone]
Percent inhibition of aprepitant glucuronidation [2, 7]: 22.2%
Percent inhibition of aprepitant glucuronidation ([2]; aprepitant […] µM (Km for UGT1A3), 1000 µM sulfinpyrazone): 22.1%
inhibition of aprepitant glucuronidation [2]: < 25%
inhibition at 60 min, 1000 µM (UGT1A3 [5]): 100%
inhibition at 60 min, 1000 µM (UGT1A3 [6]): 100%

Cc1cn([C@H]2C[C@H](N=[N+]=[N-])[C@@H](CO)O2)c(=O)[nH]c1=O [AZT, 3’-azido-3’-deoxythymidine]
share of glucuronidation catalyzed by UGT2B7 (UGT2B7): 60–70%

B1: UGT1A4 (Homo sapiens) (protein)
chain: GKVLVVPTDGSPWLSMREALRELHARGHQAVVLTPEVNMHIKEEKFFTLTAYAVPWTQKEFDRVTLGYTQGFFETEHLLKRYSRSMAIMNNVSLALHRCCVELLHNEALIRHLNATSFDVVLTDPVNLCGAVLAKYLSIPAVFFWRYIPCDLDFKGTQCPNPSSYIPKLLTTNSDHMTFLQRVKNMLYPLALSYICHTFSAPYASLASELFQREVSVVDLVSYASVWLFRGDFVMDYPRPIMPNMVFIGGINCANGKPLSQEFEAYINASGEHGIVVFSLGSMVSEIPEKKAMAIADALGKIPQTVLWRYTGTRPSNLANNTILVKWLPQNDLLGHPMTRAFITHAGSHGVYESICNGVPMVMMPLFGDQMDNAKRMETKGAGVTLNVLEMTSEDLENALKAVINDKSYKENIMRLSSLHKDRPVEPLDLAVFWVEFVMRHKGAPHLRPAAHDLTWYQYHSLDVIGFLLAVVLTVAFITFKCCAYGYRKCLGKKGRVKKAHKSKTH
K0.5 (not read; other: UGT1A4, Michaelis-Menten): 161.6 ± 15.6 µM and 162 ± 16 µM

B2: UGT1A3 (Homo sapiens) (protein)
chain: GKVLVVPIDGSHWLSMREVLRELHARGHQAVVLTPEVNMHIKEENFFTLTTYAISWTQDEFDRHVLGHTQLYFETEHFLKKFFRSMAMLNNMSLVYHRSCVELLHNEALIRHLNATSFDVVLTDPVNLCAAVLAKYLSIPTVFFLRNIPCDLDFKGTQCPNPSSYIPRLLTTNSDHMTFMQRVKNMLYPLALSYICHAFSAPYASLASELFQREVSVVDILSHASVWLFRGDFVMDYPRPIMPNMVFIGGINCANRKPLSQEFEAYINASGEHGIVVFSLGSMVSEIPEKKAMAIADALGKIPQTVLWRYTGTRPSNLANNTILVKWLPQNDLLGHPMTRAFITHAGSHGVYESICNGVPMVMMPLFGDQMDNAKRMETKGAGVTLNVLEMTSEDLENALKAVINDKSYKENIMRLSSLHKDRPVEPLDLAVFWVEFVMRHKGAPHLRPAAHDLTWYQYHSLDVIGFLLAVVLTVAFITFKCCAYGYRKCLGKKGRVKKAHKSKTH
K0.5 (not read; other: UGT1A3, Michaelis-Menten): 69.4 ± 1.9 µM and 69 ± 2 µM

B3: UGT1A8 (Homo sapiens) (protein)
chain: GKLLVVPMDGSHWFTMQSVVEKLILRGHEVVVVMPEVSWQLGKSLNCTVKTYSTSYTLEDLDREFMDFADAQWKAQVRSLFSLFLSSSNGFFNLFFSHCRSLFNDRKLVEYLKESSFDAVFLDPFDACGLIVAKYFSLPSVVFARGIACHYLEEGAQCPAPLSYVPRILLGFSDAMTFKERVRNHIMHLEEHLFCQYFSKNALEIASEILQTPVTAYDLYSHTSIWLLRTDFVLDYPKPVMPNMIFIGGINCHQGKPLPMEFEAYINASGEHGIVVFSLGSMVSEIPEKKAMAIADALGKIPQTVLWRYTGTRPSNLANNTILVKWLPQNDLLGHPMTRAFITHAGSHGVYESICNGVPMVMMPLFGDQMDNAKRMETKGAGVTLNVLEMTSEDLENALKAVINDKSYKENIMRLSSLHKDRPVEPLDLAVFWVEFVMRHKGAPHLRPAAHDLTWYQYHSLDVIGFLLAVVLTVAFITFKCCAYGYRKCLGKKGRVKKAHKSKTH
K0.5 (not read; other: UGT1A8, Hill equation (S50)): 197.1 ± 28.2 µM and 197 ± 28 µM

— PMC4844176 (Xenobiotica; the fate of foreign compounds in biological …, 2015)
